Assay results as given in US20250163104A1, “MACROCYCLIC IMMUNOMODULATORS” (priority 2021, published 2025).
Where a SMILES comes first, the peptide text is derived from it. Bridges are numbered along the chain shown (N, C = ends). [ ]: non-standard residue; d: D form. The star is where a group is joined. ξ: configuration not given here. Phe(4-CONH2) = NC(=O)c1ccc(C[C@H](N)C(=O)O)cc1; Phe(4-COOH) = N[C@@H](Cc1ccc(C(=O)O)cc1)C(=O)O; Bip = N[C@@H](Cc1ccc(-c2ccccc2)cc1)C(=O)O; Phe(3-CN) = N#Cc1cccc(C[C@H](N)C(=O)O)c1; Phe(3-Me) = Cc1cccc(C[C@H](N)C(=O)O)c1; Val(3-OH) = CC(C)(O)[C@H](N)C(=O)O; 4Pal = N[C@@H](Cc1ccncc1)C(=O)O; 2Thi = N[C@@H](Cc1cccs1)C(=O)O; 3Thi = N[C@@H](Cc1ccsc1)C(=O)O; Cha = N[C@@H](CC1CCCCC1)C(=O)O; Ile(3ξ) = CCC(C)[C@H](N)C(=O)O; Thr(3ξ) = CC(O)[C@H](N)C(=O)O; Carboxymethyl = O=C(O)C*; Orn = NCCC[C@H](N)C(=O)O; Dab = NCC[C@H](N)C(=O)O

target: T1, human PD-1 / PD-L1-Ig binding on Jurkat cell line over-expressing human PD-1 (Jurkat-PD-1) (Homo sapiens, UniProt Q15116); assay: Jurkat-PD-1 Cell Binding High-Content Screening Assay (CBA); format: cell-based; settings: Jurkat HPD1_PDL1 IC50, Jurkat-PD-1 cells, PE-labeled PD-L1-Ig 20 nM final
T1 construct: expressed in transfected cells; host or cells: Jurkat
T1 sequence (Q15116 25-288): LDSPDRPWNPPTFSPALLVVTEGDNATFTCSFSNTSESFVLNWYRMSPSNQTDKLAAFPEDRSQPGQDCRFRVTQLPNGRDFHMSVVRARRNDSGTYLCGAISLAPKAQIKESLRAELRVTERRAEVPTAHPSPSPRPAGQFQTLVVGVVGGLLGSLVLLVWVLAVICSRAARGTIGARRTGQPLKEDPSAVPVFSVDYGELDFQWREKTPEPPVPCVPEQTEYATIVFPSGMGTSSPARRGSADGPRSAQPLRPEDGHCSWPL
Method in brief: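 Cell-bound PE-labeled PD-L1-Ig (20 nM final, 1 h) measured by high-content imaging after fixation and Hoechst 33342 counterstain. Compound was applied first for 2 h at 37° C. to Jurkat cells over-expressing human PD-1 in DMEM with 10% FCS.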

Structure (SMILES)	IC50 [nM]
CCC(C)[C@@H]1NC(=O)[C@H](Cc2ccc(-c3ccccc3)cc2)NC(=O)[C@H](CC(C)C)NC(=O)[C@H](Cc2cccc(C)c2)NC(=O)[C@H](CC(=O)O)NC(=O)[C@H](Cc2ccc(C(=O)O)cc2)NC(=O)[C@H](Cc2ccncc2)NC(=O)CSC[C@@H](C(=O)N[C@H](C)C(N)=O)NC(=O)[C@H](C(C)O)NC(=O)[C@H](C(C)C)NC(=O)[C@H](CC2CCCCC2)NC(=O)[C@H](CCN)NC(=O)[C@@H](CC(C)C)NC(=O)[C@H](Cc2cnc[nH]2)NC1=O (stereo partly drawn) [Compound 2611] ({CH2CO}-[4Pal][Phe(4-COOH)]D[Phe(3-Me)]L[Bip][Ile(3ξ)]H[dL][Dab][Cha]V[Thr(3ξ)]C[dA]-NH2; thioether N-14)	19.2

same assay, conditions: Jurkat-PD-1 cells, PE-labeled PD-L1-Ig 20 nM final; read-out: Jurkat HPD1_PDL1 IC50

IC50 [nM]	Structure (SMILES)
2.7	Cc1cccc(C[C@@H]2NC(=O)[C@H](CC(=O)O)NC(=O)[C@H](Cc3ccc(C(=O)O)cc3)NC(=O)[C@H](Cc3ccncc3)NC(=O)CSC[C@@H](C(=O)N[C@@H](CCN)C(N)=O)NC(=O)[C@H](CO)NC(=O)[C@H](C(C)(C)O)NC(=O)[C@H](CC3CCCCC3)NC(=O)[C@H](CCN)NC(=O)[C@@H](CC(C)C)NC(=O)[C@H](CCCN)NC(=O)[C@H](Cc3ccc(OCC(=O)O)cc3)NC(=O)[C@H](Cc3ccc(-c4ccccc4)cc3)NC(=O)[C@H](Cc3ccc(OCC(=O)O)cc3)NC2=O)c1 [Compound 2622] ({CH2CO}-[4Pal][Phe(4-COOH)]D[Phe(3-Me)]Y(Carboxymethyl)[Bip]Y(Carboxymethyl)[Orn][dL][Dab][Cha][Val(3-OH)]SC[Dab]-NH2; thioether N-14)
4.6	Cc1cccc(C[C@@H]2NC(=O)[C@H](CC(=O)O)NC(=O)[C@H](Cc3ccc(OCC(=O)O)cc3)NC(=O)[C@H](Cc3ccncc3)NC(=O)CSC[C@@H](C(=O)N[C@@H](CCN)C(N)=O)NC(=O)[C@H](CO)NC(=O)[C@H](C(C)(C)O)NC(=O)[C@H](CC3CCCCC3)NC(=O)[C@H](CCN)NC(=O)[C@@H](CC(C)C)NC(=O)[C@H](CCCN)NC(=O)[C@H](Cc3ccc(O)cc3)NC(=O)[C@H](Cc3ccc(-c4ccccc4)cc3)NC(=O)[C@H](Cc3ccc(C(N)=O)cc3)NC2=O)c1 [Compound 2623] ({CH2CO}-[4Pal]Y(Carboxymethyl)D[Phe(3-Me)][Phe(4-CONH2)][Bip]Y[Orn][dL][Dab][Cha][Val(3-OH)]SC[Dab]-NH2; thioether N-14)
5.7	Cc1cccc(C[C@@H]2NC(=O)[C@H](CC(=O)O)NC(=O)[C@H](Cc3ccc(C(=O)O)cc3)NC(=O)[C@H](Cc3ccncc3)NC(=O)CSC[C@@H](C(=O)N[C@@H](CCN)C(N)=O)NC(=O)[C@H](CO)NC(=O)[C@H](C(C)(C)O)NC(=O)[C@H](CC3CCCCC3)NC(=O)[C@H](CCN)NC(=O)[C@@H](CC(C)C)NC(=O)[C@H](CCCN)NC(=O)[C@H](Cc3ccc(OCC(=O)O)cc3)NC(=O)[C@H](Cc3ccc(-c4ccccc4)cc3)NC(=O)[C@H](Cc3ccc(C(=O)O)cc3)NC2=O)c1 [Compound 2624] ({CH2CO}-[4Pal][Phe(4-COOH)]D[Phe(3-Me)][Phe(4-COOH)][Bip]Y(Carboxymethyl)[Orn][dL][Dab][Cha][Val(3-OH)]SC[Dab]-NH2; thioether N-14)
5.7	Cc1cccc(C[C@@H]2NC(=O)[C@H](CC(=O)O)NC(=O)[C@H](Cc3ccc(C(=O)O)cc3)NC(=O)[C@H](Cc3cccs3)NC(=O)CSC[C@@H](C(=O)N[C@@H](CCN)C(N)=O)NC(=O)[C@H](CO)NC(=O)[C@H](C(C)(C)O)NC(=O)[C@H](CC3CCCCC3)NC(=O)[C@H](CCN)NC(=O)[C@@H](CC(C)C)NC(=O)[C@H](CCCN)NC(=O)[C@H](Cc3ccc(OCC(=O)O)cc3)NC(=O)[C@H](Cc3ccc(-c4ccccc4)cc3)NC(=O)[C@H](Cc3ccc(C(=O)O)cc3)NC2=O)c1 [Compound 2625] ({CH2CO}-[2Thi][Phe(4-COOH)]D[Phe(3-Me)][Phe(4-COOH)][Bip]Y(Carboxymethyl)[Orn][dL][Dab][Cha][Val(3-OH)]SC[Dab]-NH2; thioether N-14)
10.7	Cc1cccc(C[C@@H]2NC(=O)[C@H](CC(=O)O)NC(=O)[C@H](Cc3cccc(C#N)c3)NC(=O)[C@H](Cc3ccncc3)NC(=O)CSC[C@@H](C(=O)N[C@@H](CCN)C(N)=O)NC(=O)[C@H](CO)NC(=O)[C@H](C(C)(C)O)NC(=O)[C@H](CC3CCCCC3)NC(=O)[C@H](CCN)NC(=O)[C@@H](CC(C)C)NC(=O)[C@H](CCCN)NC(=O)[C@H](Cc3ccc(OCC(=O)O)cc3)NC(=O)[C@H](Cc3ccc(-c4ccccc4)cc3)NC(=O)[C@H](Cc3ccc(C(=O)O)cc3)NC2=O)c1 [Compound 2626] ({CH2CO}-[4Pal][Phe(3-CN)]D[Phe(3-Me)][Phe(4-COOH)][Bip]Y(Carboxymethyl)[Orn][dL][Dab][Cha][Val(3-OH)]SC[Dab]-NH2; thioether N-14)
5	Cc1cccc(C[C@@H]2NC(=O)[C@H](CC(=O)O)NC(=O)[C@H](Cc3ccc(C(N)=O)cc3)NC(=O)[C@H](Cc3ccncc3)NC(=O)CSC[C@@H](C(=O)N[C@@H](CCN)C(N)=O)NC(=O)[C@H](CO)NC(=O)[C@H](C(C)(C)O)NC(=O)[C@H](CC3CCCCC3)NC(=O)[C@H](CCN)NC(=O)[C@@H](CC(C)C)NC(=O)[C@H](CCCN)NC(=O)[C@H](Cc3ccc(OCC(=O)O)cc3)NC(=O)[C@H](Cc3ccc(-c4ccccc4)cc3)NC(=O)[C@H](Cc3ccc(C(=O)O)cc3)NC2=O)c1 [Compound 2627] ({CH2CO}-[4Pal][Phe(4-CONH2)]D[Phe(3-Me)][Phe(4-COOH)][Bip]Y(Carboxymethyl)[Orn][dL][Dab][Cha][Val(3-OH)]SC[Dab]-NH2; thioether N-14)
20.6	Cc1cccc(C[C@@H]2NC(=O)[C@H](CC(=O)O)NC(=O)[C@H](Cc3ccc(OCC(=O)O)cc3)NC(=O)[C@H](Cc3ccncc3)NC(=O)CSC[C@@H](C(=O)N[C@H](CC(N)=O)C(N)=O)NC(=O)[C@H](CO)NC(=O)[C@H](C(C)(C)O)NC(=O)[C@H](CC3CCCCC3)NC(=O)[C@H](CCN)NC(=O)[C@@H](CC(C)C)NC(=O)[C@H](CCCN)NC(=O)[C@H](Cc3ccc(OCC(=O)O)cc3)NC(=O)[C@H](Cc3ccc(-c4ccccc4)cc3)NC(=O)[C@H](Cc3ccc(C(=O)O)cc3)NC2=O)c1 [Compound 2628] ({CH2CO}-[4Pal]Y(Carboxymethyl)D[Phe(3-Me)][Phe(4-COOH)][Bip]Y(Carboxymethyl)[Orn][dL][Dab][Cha][Val(3-OH)]SC[dN]-NH2; thioether N-14)

Continued, compound first:

Structure (SMILES)	IC50 [nM]
CC(C)C[C@H]1NC(=O)[C@H](CCN)NC(=O)[C@H](C(C)C)NC(=O)[C@H](Cc2ccc(-c3ccccc3)cc2)NC(=O)[C@H](C(C)C)NC(=O)[C@H](Cc2c[nH]c3ccccc23)NC(=O)[C@H](CC(=O)O)NC(=O)[C@H](Cc2ccc(OCC(=O)O)cc2)NC(=O)[C@H](Cc2ccsc2)NC(=O)CSC[C@@H](C(=O)N[C@H](CC(N)=O)C(N)=O)NC(=O)[C@H](CCCCN)NC(=O)[C@H](C(C)C)NC(=O)[C@H](CC2CCCCC2)NC(=O)[C@H](CCN)NC1=O [Compound 2612] ({CH2CO}-[3Thi]Y(Carboxymethyl)DWV[Bip]V[Dab][dL][Dab][Cha]VKC[dN]-NH2; thioether N-14)	5.9
CC(=O)NCCCC[C@@H]1NC(=O)[C@H](C(C)C)NC(=O)[C@H](CC2CCCCC2)NC(=O)[C@H](CCN)NC(=O)[C@@H](CC(C)C)NC(=O)[C@H](CCN)NC(=O)[C@H](C(C)C)NC(=O)[C@H](Cc2ccc(-c3ccccc3)cc2)NC(=O)[C@H](C(C)C)NC(=O)[C@H](Cc2c[nH]c3ccccc23)NC(=O)[C@H](CC(=O)O)NC(=O)[C@H](Cc2ccc(OCC(=O)O)cc2)NC(=O)[C@H](Cc2ccsc2)NC(=O)CSC[C@@H](C(=O)N[C@@H](CCN)C(N)=O)NC1=O [Compound 2613] ({CH2CO}-[3Thi]Y(Carboxymethyl)DWV[Bip]V[Dab][dL][Dab][Cha]VK(Ac)C[Dab]-NH2; thioether N-14)	11
CC(C)C[C@H]1NC(=O)[C@H](CCN)NC(=O)[C@H](C(C)C)NC(=O)[C@H](Cc2ccc(-c3ccccc3)cc2)NC(=O)[C@H](C(C)C)NC(=O)[C@H](Cc2c[nH]c3ccccc23)NC(=O)[C@H](CC(=O)O)NC(=O)[C@H](Cc2ccc(OCC(=O)O)cc2)NC(=O)[C@H](Cc2ccsc2)NC(=O)CSC[C@@H](C(N)=O)NC(=O)[C@H](CCCCN)NC(=O)[C@H](C(C)C)NC(=O)[C@H](CC2CCCCC2)NC(=O)[C@H](CCN)NC1=O [Compound 2614] ({CH2CO}-[3Thi]Y(Carboxymethyl)DWV[Bip]V[Dab][dL][Dab][Cha]VKC-NH2; thioether N-14)	7
Cc1cccc(C[C@@H]2NC(=O)[C@H](CC(=O)O)NC(=O)[C@H](Cc3ccc(OCC(=O)O)cc3)NC(=O)[C@H](Cc3ccsc3)NC(=O)CSC[C@@H](C(=O)N[C@@H](CCN)C(N)=O)NC(=O)[C@H](CO)NC(=O)[C@H](C(C)(C)O)NC(=O)[C@H](CC3CCCCC3)NC(=O)[C@H](CCN)NC(=O)[C@@H](CC(C)C)NC(=O)[C@H](CCCN)NC(=O)[C@H](Cc3ccc(OCC(=O)O)cc3)NC(=O)[C@H](Cc3ccc(-c4ccccc4)cc3)NC(=O)[C@H](Cc3ccc(OCC(=O)O)cc3)NC2=O)c1 [Compound 2615] ({CH2CO}-[3Thi]Y(Carboxymethyl)D[Phe(3-Me)]Y(Carboxymethyl)[Bip]Y(Carboxymethyl)[Orn][dL][Dab][Cha][Val(3-OH)]SC[Dab]-NH2; thioether N-14)	3.7
Cc1cccc(C[C@@H]2NC(=O)[C@H](CC(=O)O)NC(=O)[C@H](Cc3ccc(C(=O)O)cc3)NC(=O)[C@H](Cc3ccsc3)NC(=O)CSC[C@@H](C(=O)N[C@@H](CCN)C(N)=O)NC(=O)[C@H](CO)NC(=O)[C@H](C(C)(C)O)NC(=O)[C@H](CC3CCCCC3)NC(=O)[C@H](CCN)NC(=O)[C@@H](CC(C)C)NC(=O)[C@H](CCCN)NC(=O)[C@H](Cc3ccc(OCC(=O)O)cc3)NC(=O)[C@H](Cc3ccc(-c4ccccc4)cc3)NC(=O)[C@H](Cc3ccc(OCC(=O)O)cc3)NC2=O)c1 [Compound 2617] ({CH2CO}-[3Thi][Phe(4-COOH)]D[Phe(3-Me)]Y(Carboxymethyl)[Bip]Y(Carboxymethyl)[Orn][dL][Dab][Cha][Val(3-OH)]SC[Dab]-NH2; thioether N-14)	3.1
